Laboratory results from ChEMBL document CHEMBL4507315 (2021).

Key:
[1] = target: Aurora kinase C (Homo sapiens) (UniProt Q9UQB9); settings: Compound concentration 100.0 nM
[2] = target: Cyclin-dependent kinase 2 (Homo sapiens) (UniProt P24941); settings: Compound concentration 100.0 nM
[3] = target: Serine/threonine-protein kinase Nek2 (Homo sapiens) (UniProt P51955); settings: Compound concentration 100.0 nM
[4] = target: High affinity nerve growth factor receptor (Homo sapiens) (UniProt P04629); settings: Compound concentration 100.0 nM
[5] = target: Serine/threonine-protein kinase Sgk1 (Homo sapiens) (UniProt O00141); settings: Compound concentration 100.0 nM
Sequence of Serine/threonine-protein kinase Sgk1 (Homo sapiens) (O00141 whole entry): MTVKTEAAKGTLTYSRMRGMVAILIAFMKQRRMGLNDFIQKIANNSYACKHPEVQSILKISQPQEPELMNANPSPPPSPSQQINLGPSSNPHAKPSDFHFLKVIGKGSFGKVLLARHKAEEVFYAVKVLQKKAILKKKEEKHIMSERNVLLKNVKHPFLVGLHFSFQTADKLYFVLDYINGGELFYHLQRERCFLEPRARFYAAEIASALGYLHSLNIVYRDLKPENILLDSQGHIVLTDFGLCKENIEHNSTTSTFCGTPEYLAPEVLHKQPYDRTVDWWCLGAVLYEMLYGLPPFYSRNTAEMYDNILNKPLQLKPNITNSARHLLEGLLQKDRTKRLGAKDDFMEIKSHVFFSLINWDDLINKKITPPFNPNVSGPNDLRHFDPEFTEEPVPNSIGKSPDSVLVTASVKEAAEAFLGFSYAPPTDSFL

[6] = target: Ephrin type-B receptor 6 (Homo sapiens) (UniProt O15197); settings: Compound concentration 100.0 nM
[7] = target: Muscarinic acetylcholine receptor M1 (Homo sapiens) (UniProt P11229); settings: Compound concentration 10.0 uM
Sequence of Muscarinic acetylcholine receptor M1 (Homo sapiens) (P11229 whole entry): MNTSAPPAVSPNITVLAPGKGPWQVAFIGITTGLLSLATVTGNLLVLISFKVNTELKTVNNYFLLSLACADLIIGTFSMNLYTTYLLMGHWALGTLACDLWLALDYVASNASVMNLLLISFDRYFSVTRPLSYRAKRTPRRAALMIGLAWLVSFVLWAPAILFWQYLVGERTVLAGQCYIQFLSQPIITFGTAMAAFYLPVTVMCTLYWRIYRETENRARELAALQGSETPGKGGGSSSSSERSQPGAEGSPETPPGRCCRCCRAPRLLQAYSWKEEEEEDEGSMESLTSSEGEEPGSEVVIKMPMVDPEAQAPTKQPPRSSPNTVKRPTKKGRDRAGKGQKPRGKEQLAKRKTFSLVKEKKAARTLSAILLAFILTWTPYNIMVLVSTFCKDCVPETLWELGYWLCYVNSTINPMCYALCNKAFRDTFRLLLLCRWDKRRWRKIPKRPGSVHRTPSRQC

[8] = target: Rhodopsin kinase GRK7 (Homo sapiens) (UniProt Q8WTQ7); settings: Compound concentration 100.0 nM
[9] = test system: Proto-oncogene tyrosine-protein kinase receptor Ret (Homo sapiens), P07949 [M918T]; settings: Compound concentration 100.0 nM
Sequence of Proto-oncogene tyrosine-protein kinase receptor Ret (Homo sapiens), P07949 [M918T] (P07949 whole entry M918T): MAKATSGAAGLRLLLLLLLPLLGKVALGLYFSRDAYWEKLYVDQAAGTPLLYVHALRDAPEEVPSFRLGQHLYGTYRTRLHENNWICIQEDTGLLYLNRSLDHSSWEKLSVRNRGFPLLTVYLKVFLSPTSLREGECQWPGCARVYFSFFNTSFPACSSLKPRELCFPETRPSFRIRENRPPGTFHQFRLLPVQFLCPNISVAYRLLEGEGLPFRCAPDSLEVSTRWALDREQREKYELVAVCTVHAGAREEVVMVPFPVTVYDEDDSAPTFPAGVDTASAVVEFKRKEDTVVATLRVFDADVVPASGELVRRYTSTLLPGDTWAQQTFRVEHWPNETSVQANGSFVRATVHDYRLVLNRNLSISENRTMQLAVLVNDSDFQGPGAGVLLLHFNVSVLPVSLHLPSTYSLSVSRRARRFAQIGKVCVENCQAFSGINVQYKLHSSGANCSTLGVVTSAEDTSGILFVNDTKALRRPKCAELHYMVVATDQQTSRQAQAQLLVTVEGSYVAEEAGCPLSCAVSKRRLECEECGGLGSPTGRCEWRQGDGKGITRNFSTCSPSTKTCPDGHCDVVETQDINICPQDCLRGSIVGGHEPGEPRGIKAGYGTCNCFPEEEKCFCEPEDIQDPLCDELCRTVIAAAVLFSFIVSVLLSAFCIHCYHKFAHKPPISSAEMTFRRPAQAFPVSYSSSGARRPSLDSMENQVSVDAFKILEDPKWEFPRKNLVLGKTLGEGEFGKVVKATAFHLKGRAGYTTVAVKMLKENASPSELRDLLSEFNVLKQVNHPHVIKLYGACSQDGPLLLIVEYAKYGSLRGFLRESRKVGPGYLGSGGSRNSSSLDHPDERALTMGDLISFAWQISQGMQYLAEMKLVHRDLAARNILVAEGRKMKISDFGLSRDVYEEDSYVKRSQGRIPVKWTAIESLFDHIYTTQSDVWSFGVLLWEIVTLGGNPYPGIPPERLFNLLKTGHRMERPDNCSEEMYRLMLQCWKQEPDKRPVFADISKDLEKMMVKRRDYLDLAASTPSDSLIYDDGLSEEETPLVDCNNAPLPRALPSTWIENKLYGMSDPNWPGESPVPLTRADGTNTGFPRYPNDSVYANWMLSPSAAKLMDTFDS

[10] = test system: Mast/stem cell growth factor receptor Kit (Homo sapiens), P10721 [D816H]; settings: Compound concentration 100.0 nM
[11] = target: Receptor-interacting serine/threonine-protein kinase 4 (Homo sapiens) (UniProt P57078); settings: Compound concentration 100.0 nM
[12] = target: Alpha-2C adrenergic receptor (Homo sapiens) (UniProt P18825); settings: Compound concentration 10.0 uM
[13] = target: BDNF/NT-3 growth factors receptor (Homo sapiens) (UniProt Q16620); settings: Compound concentration 100.0 nM
[14] = target: cGMP-dependent protein kinase 1 (Homo sapiens) (UniProt Q13976); settings: Compound concentration 100.0 nM
[15] = target: Tyrosine-protein kinase TXK (Homo sapiens) (UniProt P42681); settings: Compound concentration 100.0 nM
[16] = target: Tyrosine-protein kinase Fyn (Homo sapiens) (UniProt P06241); settings: Compound concentration 100.0 nM
[17] = target: Serine/threonine-protein kinase Nek6 (Homo sapiens) (UniProt Q9HC98); settings: Compound concentration 100.0 nM
[18] = target: Beta-adrenergic receptor kinase 1 (Homo sapiens) (UniProt P25098); settings: Compound concentration 100.0 nM
[19] = target: Ephrin type-B receptor 3 (Homo sapiens) (UniProt P54753); settings: Compound concentration 100.0 nM
[20] = target: Serine/threonine-protein kinase mTOR (Homo sapiens) (UniProt P42345); settings: Compound concentration 100.0 nM
[21] = target: 5-hydroxytryptamine receptor 3A (Homo sapiens) (UniProt P46098); settings: Compound concentration 10.0 uM
[22] = target: Eukaryotic translation initiation factor 2-alpha kinase 1 (Homo sapiens) (UniProt Q9BQI3); settings: Compound concentration 100.0 nM
Sequence of Eukaryotic translation initiation factor 2-alpha kinase 1 (Homo sapiens) (Q9BQI3 whole entry): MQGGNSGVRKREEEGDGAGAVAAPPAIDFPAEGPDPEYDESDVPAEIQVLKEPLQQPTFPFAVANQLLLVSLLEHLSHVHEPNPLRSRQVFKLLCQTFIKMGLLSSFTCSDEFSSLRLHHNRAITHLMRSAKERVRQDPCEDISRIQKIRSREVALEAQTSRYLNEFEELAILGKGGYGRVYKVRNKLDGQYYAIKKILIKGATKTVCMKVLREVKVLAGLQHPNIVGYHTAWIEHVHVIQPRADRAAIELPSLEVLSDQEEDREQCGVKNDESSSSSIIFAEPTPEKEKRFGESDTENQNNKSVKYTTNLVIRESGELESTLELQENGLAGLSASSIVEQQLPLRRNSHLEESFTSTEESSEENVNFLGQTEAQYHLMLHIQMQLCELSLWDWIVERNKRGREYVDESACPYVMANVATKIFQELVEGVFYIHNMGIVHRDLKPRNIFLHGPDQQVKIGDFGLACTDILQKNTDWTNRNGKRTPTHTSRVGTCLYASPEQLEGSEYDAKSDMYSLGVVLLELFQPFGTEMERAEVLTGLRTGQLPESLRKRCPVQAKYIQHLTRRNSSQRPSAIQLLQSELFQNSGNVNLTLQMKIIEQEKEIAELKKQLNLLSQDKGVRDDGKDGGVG

[23] = target: G protein-coupled receptor kinase 3 (Homo sapiens) (UniProt P35626); settings: Compound concentration 100.0 nM
[24] = test system: Phosphatidylinositol 4,5-bisphosphate 3-kinase catalytic subunit alpha isoform (Homo sapiens), P42336 [H1047L]; settings: Compound concentration 100.0 nM
[25] = target: Ribosomal protein S6 kinase alpha-1 (Homo sapiens) (UniProt Q15418); settings: Compound concentration 100.0 nM
[26] = target: Calcium/calmodulin-dependent protein kinase type II subunit gamma (Homo sapiens) (UniProt Q13555); settings: Compound concentration 100.0 nM
[27] = target: Tyrosine-protein kinase Mer (Homo sapiens) (UniProt Q12866); settings: Compound concentration 100.0 nM
[28] = target: Casein kinase I isoform delta (Homo sapiens) (UniProt P48730); settings: Compound concentration 100.0 nM
[29] = target: Tyrosine-protein kinase SYK (Homo sapiens) (UniProt P43405); settings: Compound concentration 100.0 nM
[30] = target: Cyclin-dependent kinase 4 (Homo sapiens) (UniProt P11802); settings: Compound concentration 100.0 nM
[31] = target: Receptor tyrosine-protein kinase erbB-3 (Homo sapiens) (UniProt P21860); settings: Compound concentration 100.0 nM
[32] = target: STE20/SPS1-related proline-alanine-rich protein kinase (Homo sapiens) (UniProt Q9UEW8); settings: Compound concentration 100.0 nM
[33] = target: Aurora kinase B (Homo sapiens) (UniProt Q96GD4); settings: Compound concentration 100.0 nM
[34] = target: Mitogen-activated protein kinase kinase kinase 7 (Homo sapiens) (UniProt O43318); settings: Compound concentration 100.0 nM
[35] = target: NT-3 growth factor receptor (Homo sapiens) (UniProt Q16288); settings: Compound concentration 100.0 nM
[36] = target: Rho-associated protein kinase 2 (Homo sapiens) (UniProt O75116); settings: Compound concentration 100.0 nM
[37] = test system: ALK tyrosine kinase receptor (Homo sapiens), Q9UM73 [C1156Y]; settings: Compound concentration 100.0 nM
Sequence of ALK tyrosine kinase receptor (Homo sapiens), Q9UM73 [C1156Y] (Q9UM73 whole entry C1156Y, looked up): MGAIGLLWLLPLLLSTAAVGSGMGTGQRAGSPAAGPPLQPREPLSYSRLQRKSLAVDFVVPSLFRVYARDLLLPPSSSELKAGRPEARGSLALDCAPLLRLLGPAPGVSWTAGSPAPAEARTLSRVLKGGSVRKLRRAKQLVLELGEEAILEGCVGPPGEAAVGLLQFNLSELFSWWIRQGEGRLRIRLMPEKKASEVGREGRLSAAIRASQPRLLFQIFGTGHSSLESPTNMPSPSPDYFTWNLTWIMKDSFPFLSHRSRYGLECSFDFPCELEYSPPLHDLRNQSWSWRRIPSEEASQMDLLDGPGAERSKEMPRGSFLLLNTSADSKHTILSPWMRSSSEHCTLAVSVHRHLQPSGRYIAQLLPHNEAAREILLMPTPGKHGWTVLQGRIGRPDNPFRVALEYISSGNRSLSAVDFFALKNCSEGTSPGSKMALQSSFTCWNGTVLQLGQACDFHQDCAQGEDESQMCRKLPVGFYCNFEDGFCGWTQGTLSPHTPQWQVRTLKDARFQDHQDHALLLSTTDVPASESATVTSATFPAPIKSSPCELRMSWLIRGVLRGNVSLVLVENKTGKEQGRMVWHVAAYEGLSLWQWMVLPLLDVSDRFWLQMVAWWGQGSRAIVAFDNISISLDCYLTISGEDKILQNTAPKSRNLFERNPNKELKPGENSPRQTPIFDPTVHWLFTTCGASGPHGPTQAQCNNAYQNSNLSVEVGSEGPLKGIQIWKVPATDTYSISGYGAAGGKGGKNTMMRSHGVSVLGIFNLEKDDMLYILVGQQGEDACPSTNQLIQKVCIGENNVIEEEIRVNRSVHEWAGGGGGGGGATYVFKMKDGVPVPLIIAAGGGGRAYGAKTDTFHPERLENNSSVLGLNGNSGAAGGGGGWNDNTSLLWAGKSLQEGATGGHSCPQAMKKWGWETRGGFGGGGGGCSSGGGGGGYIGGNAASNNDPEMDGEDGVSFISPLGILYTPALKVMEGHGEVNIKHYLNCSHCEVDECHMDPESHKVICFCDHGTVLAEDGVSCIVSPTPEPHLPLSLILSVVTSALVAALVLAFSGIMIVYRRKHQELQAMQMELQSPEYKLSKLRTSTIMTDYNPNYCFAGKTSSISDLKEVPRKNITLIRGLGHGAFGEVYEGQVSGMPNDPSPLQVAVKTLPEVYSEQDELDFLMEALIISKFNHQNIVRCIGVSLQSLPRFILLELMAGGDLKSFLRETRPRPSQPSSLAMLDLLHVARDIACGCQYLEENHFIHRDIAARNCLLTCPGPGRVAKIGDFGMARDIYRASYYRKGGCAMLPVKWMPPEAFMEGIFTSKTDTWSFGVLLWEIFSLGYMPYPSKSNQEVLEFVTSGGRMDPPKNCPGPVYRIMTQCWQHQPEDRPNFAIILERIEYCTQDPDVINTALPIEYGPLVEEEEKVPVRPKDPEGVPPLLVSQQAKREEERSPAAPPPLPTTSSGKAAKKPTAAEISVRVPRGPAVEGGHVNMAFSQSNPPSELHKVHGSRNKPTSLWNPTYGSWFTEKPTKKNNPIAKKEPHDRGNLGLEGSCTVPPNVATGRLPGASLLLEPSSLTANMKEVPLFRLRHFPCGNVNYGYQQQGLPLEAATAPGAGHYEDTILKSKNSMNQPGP

[38] = target: Serine/threonine-protein kinase SIK1 (Homo sapiens) (UniProt P57059); settings: Compound concentration 100.0 nM
[39] = target: Interferon-induced, double-stranded RNA-activated protein kinase (Homo sapiens) (UniProt P19525); settings: Compound concentration 100.0 nM
Sequence of Interferon-induced, double-stranded RNA-activated protein kinase (Homo sapiens) (P19525 whole entry): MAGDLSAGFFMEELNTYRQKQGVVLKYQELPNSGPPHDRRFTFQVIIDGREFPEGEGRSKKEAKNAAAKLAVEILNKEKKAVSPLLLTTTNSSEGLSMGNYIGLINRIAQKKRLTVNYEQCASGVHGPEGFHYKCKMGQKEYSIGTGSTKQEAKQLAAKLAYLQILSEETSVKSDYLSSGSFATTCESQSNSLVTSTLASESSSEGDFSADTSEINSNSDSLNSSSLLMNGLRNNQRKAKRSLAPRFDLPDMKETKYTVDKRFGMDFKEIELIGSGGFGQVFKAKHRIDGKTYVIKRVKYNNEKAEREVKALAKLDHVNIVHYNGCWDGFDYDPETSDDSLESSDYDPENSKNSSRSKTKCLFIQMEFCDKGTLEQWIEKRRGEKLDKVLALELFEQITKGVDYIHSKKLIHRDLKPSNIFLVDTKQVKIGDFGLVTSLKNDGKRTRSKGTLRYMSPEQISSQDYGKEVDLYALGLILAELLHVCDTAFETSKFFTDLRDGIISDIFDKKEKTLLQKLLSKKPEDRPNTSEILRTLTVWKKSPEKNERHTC

[40] = target: Serine/threonine-protein kinase SBK1 (Homo sapiens) (UniProt Q52WX2); settings: Compound concentration 100.0 nM
[41] = target: Serine/threonine-protein kinase Chk2 (Homo sapiens) (UniProt O96017); settings: Compound concentration 100.0 nM
[42] = target: Phosphatidylinositol 4,5-bisphosphate 3-kinase catalytic subunit gamma isoform (Homo sapiens) (UniProt P48736); settings: Compound concentration 100.0 nM
[43] = target: Hepatocyte growth factor receptor (Homo sapiens) (UniProt P08581); settings: Compound concentration 100.0 nM
[44] = target: Serine/threonine-protein kinase RIO1 (Homo sapiens) (UniProt Q9BRS2); settings: Compound concentration 100.0 nM
[45] = target: Serine/threonine-protein kinase Nek7 (Homo sapiens) (UniProt Q8TDX7); settings: Compound concentration 100.0 nM

What does the source list for `Nc1c(C(=O)NCc2ccc(C(=O)NCCCC3CCCCC3)cc2)cnn1-c1ccccc1` [SR-318]?
residual activity [1]: 100%; residual activity [2]: 96%; residual activity [3]: 100%; residual activity [4]: 100%; residual activity [5]: 100%; residual activity [6]: 100%; inhibition [7]: 31.1%; residual activity [8]: 100%; residual activity [9]: 100%; residual activity [10]: 61%; residual activity [11]: 100%; inhibition [12]: 18.1%; residual activity [13]: 85%; residual activity [14]: 74%; residual activity [15]: 83%; residual activity [16]: 100%; residual activity [17]: 100%; residual activity [18]: 100%; residual activity [19]: 96%; residual activity [20]: 100%; inhibition [21]: -0.42%; residual activity [22]: 100%; residual activity [23]: 100%; residual activity [24]: 100%; residual activity [25]: 100%; residual activity [26]: 100%; residual activity [27]: 100%; residual activity [28]: 100%; residual activity [29]: 74%; residual activity [30]: 100%; residual activity [31]: 44%; residual activity [32]: 96%; residual activity [33]: 81%; residual activity [34]: 100%; residual activity [35]: 97%; residual activity [36]: 100%; residual activity [37]: 100%; residual activity [38]: 100%; residual activity [39]: 54%; residual activity [40]: 82%; residual activity [41]: 88%; residual activity [42]: 100%; residual activity [43]: 95%; residual activity [44]: 95%; residual activity [45]: 99%

`O=C(NCCCC1CCCCC1)c1ccc(CNC(=O)c2cnn(-c3ccccc3)c2C(F)(F)F)cc1` [SR-321] was tested. Which residual activity [1] did it give?
Its residual activity is 100%.

And the residual activity [2]?
The residual activity was 96%.

And the residual activity [3]?
Its residual activity is 100%.

And the residual activity [4]?
Its residual activity is 100%.

What about the residual activity [5] of the same compound?
Its residual activity is 100%.

What about the residual activity [6] of the same compound?
Its residual activity is 100%.

What about the inhibition [7] of the same compound?
Its inhibition is 11.8%.

And the residual activity [8]?
The residual activity was 100%.

What about the residual activity [9] of the same compound?
Its residual activity is 100%.

And the residual activity [10]?
The residual activity was 78%.

And the residual activity [11]?
The residual activity was 58%.

And the inhibition [12]?
The inhibition was 3.68%.

What about the residual activity [13] of the same compound?
Its residual activity is 100%.

And the residual activity [14]?
The residual activity was 100%.

And the residual activity [15]?
Its residual activity is 100%.

What about the residual activity [16] of the same compound?
Its residual activity is 86%.

What about the residual activity [17] of the same compound?
The residual activity was 83%.

And the residual activity [18]?
Its residual activity is 100%.

And the residual activity [19]?
Its residual activity is 79%.

What about the residual activity [20] of the same compound?
The residual activity was 100%.

What about the inhibition [21] of the same compound?
The inhibition was 5.72%.

And the residual activity [22]?
The residual activity was 95%.

What about the residual activity [23] of the same compound?
The residual activity was 100%.

And the residual activity [24]?
The residual activity was 86%.

And the residual activity [25]?
The residual activity was 100%.

And the residual activity [26]?
Its residual activity is 100%.

And the residual activity [27]?
Its residual activity is 100%.

And the residual activity [28]?
Its residual activity is 100%.

And the residual activity [29]?
Its residual activity is 100%.

What about the residual activity [30] of the same compound?
Its residual activity is 96%.

What about the residual activity [31] of the same compound?
Its residual activity is 100%.

And the residual activity [32]?
Its residual activity is 100%.

What about the residual activity [33] of the same compound?
The residual activity was 95%.

What about the residual activity [34] of the same compound?
The residual activity was 89%.

And the residual activity [35]?
Its residual activity is 100%.

And the residual activity [36]?
The residual activity was 100%.

And the residual activity [37]?
Its residual activity is 100%.

And the residual activity [38]?
Its residual activity is 91%.

And the residual activity [39]?
Its residual activity is 64%.

What about the residual activity [40] of the same compound?
The residual activity was 100%.

And the residual activity [41]?
Its residual activity is 100%.

And the residual activity [42]?
The residual activity was 95%.

What about the residual activity [43] of the same compound?
The residual activity was 100%.

What about the residual activity [44] of the same compound?
Its residual activity is 100%.

What about the residual activity [45] of the same compound?
The residual activity was 97%.
